The text below walks through data of patent US8163718B2, “Nucleoside analogues containing phosphonate or phosphonamide groups” (Gilead Sciences, Inc., priority 2008, dated 2012).

A value given as a limit tells only on which side of the number the result lay.

Common to all, as to test: Cytostatic cell culture assay (GI50), SRB
Holding throughout (assay type): cell-based

In one experiment the test system is A549. Conditions: Homo sapiens, A549, 120 h; 5 days incubation. The gist of the method: (§1)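 Cells were seeded and incubated overnight at 37 °C, then exposed for 5 days at 37 °C to 5-fold serial dilutions of compound. After fixation with cold 10% TCA, cells were stained with 0.057% SRB, and the dye was solubilized in 10 mM Tris pH 10.5 and read at OD 500 nm. GI50 came from sigmoidal dose-response fits.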

A further experiment relates to BT-549. The following applies: Homo sapiens, BT-549, 120 h; 5 days incubation. The gist of the method:
as §1

The test system of a further experiment is Du-145. Conditions: Homo sapiens, DU-145, 120 h; 5 days incubation. Summed up: as §1
For another experiment, the system named is HCT-116. Conditions: Homo sapiens, HCT-116, 120 h; 5 days incubation. The gist of the method:
as §1

In a further experiment the test system is HCT-15. Conditions: Homo sapiens, HCT-15, 120 h; 5 days incubation. The gist of the method: as §1
The next experiment has as its system Hs-578. The following applies: Hs578, 120 h; 5 days incubation. Summed up:
as §1

Another experiment deals with NCI-H23. The following applies: Homo sapiens, NCI-H23, 120 h; 5 days incubation. Summed up: as §1
A further experiment deals with PC3. The following applies: Homo sapiens, PC-3, 120 h; 5 days incubation. The gist of the method: as §1

In the case of `CCOC(=O)[C@H](C)NP(=O)(COCCn1cnc2c(OCCOC)nc(N)nc21)N[C@@H](C)C(=O)OCC` [Example 48], the 50% growth inhibitory concentration (GI50) (usually the concentration giving 50% growth inhibition) with A549 is 4.09 µM; in the experiment with BT-549, 1.71 µM; in the experiment with Du-145, 0.108 µM; in the experiment on HCT-116, 2.52 µM; in the experiment on HCT-15 it was more than 10 µM; with Hs-578 it was 0.976 µM. Further, the concentration for 50% growth inhibition (GI50) was determined as 0.061 µM with NCI-H23 and 0.372 µM in the experiment on PC3.

For `CCCCOC(=O)[C@H](C)NP(=O)(COCCn1cnc2c(OCCOC)nc(N)nc21)N[C@@H](C)C(=O)OCCCC` [Example 49], the GI50 in the experiment with A549 came to 0.368 µM; with BT-549, 0.05 µM; in the experiment on Du-145 it was 0.001 µM; with HCT-116 it was 0.109 µM; in the experiment with HCT-15, 5.1 µM; in the experiment with Hs-578, 0.025 µM. The GI50 was determined as 0.002 µM in the experiment with NCI-H23 and 0.003 µM in the experiment with PC3.

For the molecule `CCOC(=O)[C@@H]1CCCN1P(=O)(COCCn1cnc2c(NC3CC3)nc(N)nc21)N1CCC[C@H]1C(=O)OCC` [Example 50], the GI50 in the experiment with A549 is 3.7 µM; in the experiment on BT-549, 1.62 µM; with Du-145, 0.25 µM; in the experiment with HCT-116, 3.07 µM; with HCT-15, more than 10 µM; with Hs-578, 0.308 µM. Also, the GI50 in the experiment with NCI-H23 was 0.118 µM; with PC3 it was 0.608 µM.

Consider `Nc1nc(NC2CC2)c2ncn(CCOCP(=O)(N3CCC[C@H]3C(=O)OCc3ccccc3)N3CCC[C@H]3C(=O)OCc3ccccc3)c2n1` [Example 51], for which the concentration for 50% growth inhibition (GI50) was found to be 1.67 µM with A549; 0.527 µM in the experiment with BT-549; 0.256 µM in the experiment on Du-145; 0.85 µM in the experiment with HCT-116; 8.5 µM in the experiment with HCT-15; 0.096 µM in the experiment on Hs-578. The GI50 in the experiment with NCI-H23 was determined as 0.263 µM; in the experiment on PC3, 0.214 µM.

On to `CCCOc1nc(N)nc2c1ncn2CCOCP(=O)(N[C@@H](C)C(=O)OC(C)C)Oc1ccccc1` (some centres unmarked) [Example 54], for which the GI50 with A549 was found to be 0.317 µM; in the experiment on BT-549, 1.77 µM; in the experiment with Du-145, 0.065 µM; with HCT-116, 0.84 µM; in the experiment on HCT-15, 2.77 µM; with Hs-578 it was 0.894 µM. Besides, the GI50 came out at 0.067 µM with NCI-H23 and 0.472 µM in the experiment on PC3.

Regarding `CCCOc1nc(N)nc2c1ncn2CCOCP(=O)(N[C@@H](Cc1ccccc1)C(=O)OCC)Oc1ccccc1` (some centres unmarked) [Example 55], the GI50 with A549 turned out to be 0.08 µM; in the experiment with BT-549, 0.756 µM; in the experiment with Du-145 it was 0.004 µM; in the experiment with HCT-116 it was 0.047 µM; in the experiment on HCT-15, 0.815 µM; in the experiment with Hs-578 it was 0.149 µM. Besides, the results for the GI50 in the experiment on NCI-H23 and in the experiment with PC3 were 0.009 µM and 0.059 µM, respectively.

For `CCCOc1nc(N)nc2c1ncn2CCOCP(=O)(Oc1ccccc1)N1CCC[C@H]1C(=O)OCc1ccccc1` (some centres unmarked) [Example 56], the GI50 in the experiment with A549 stood at 2.13 µM; in the experiment on BT-549 it was 1.09 µM; in the experiment on Du-145, 0.722 µM; in the experiment on HCT-116, 1.93 µM; in the experiment on HCT-15, 3.86 µM; in the experiment with Hs-578, 1.49 µM. For the same molecule, the GI50 in the experiment on NCI-H23 was found to be 0.389 µM; with PC3, 1.25 µM.

In the case of `CCCOc1nc(N)nc2c1ncn2CCOCP(=O)(Oc1ccccc1)N1CCC[C@H]1C(=O)OCC` (some centres unmarked) [Example 57], the GI50 with A549 amounted to 2.42 µM; in the experiment with BT-549, 1.12 µM; in the experiment on Du-145, 0.372 µM; in the experiment with HCT-116 it was 1.61 µM; in the experiment on HCT-15, 5.2 µM; in the experiment with Hs-578, 1.11 µM. Besides, the GI50 with NCI-H23 was determined as 0.241 µM; in the experiment on PC3, 0.696 µM.

On to `CCCCOC(=O)[C@H](C)NP(=O)(COCCn1cnc2c(OC3CC3)nc(N)nc21)Oc1ccccc1` (some centres unmarked) [Example 58], for which the GI50 in the experiment with A549 stood at 0.204 µM; in the experiment with BT-549, 0.585 µM; with Du-145, 0.001 µM; in the experiment with HCT-116, 0.114 µM; in the experiment on HCT-15 it was 1.03 µM; in the experiment on Hs-578, 0.042 µM. Besides, the figures for the GI50 in the experiment on NCI-H23 and in the experiment on PC3 were 0.003 µM and 0.06 µM, respectively.

On to `CCCOc1nc(N)nc2c1ncn2CCOCP(=O)(OCOC(=O)OC(C)C)OCOC(=O)OC(C)C` [Example 59], for which the GI50 in the experiment on A549 worked out at 0.168 µM; with BT-549, 0.045 µM; in the experiment with Du-145, 0.002 µM; in the experiment with HCT-116 it was 0.118 µM; in the experiment on HCT-15 it was 0.534 µM; with Hs-578 it was 0.061 µM. In addition, the results for the GI50 with NCI-H23 and in the experiment with PC3 were 0.01 µM and 0.04 µM, respectively.

Consider `COc1nc(N)nc2c1ncn2CCOCP(=O)(OCOC(=O)OC(C)C)OCOC(=O)OC(C)C` [Example 60], for which the concentration for 50% growth inhibition (GI50) with A549 stood at 0.091 µM; in the experiment with BT-549 it was 0.042 µM; with Du-145, 0.002 µM; with HCT-116, 0.079 µM; in the experiment with HCT-15, 0.766 µM; with Hs-578, 0.022 µM. Moreover, the GI50 in the experiment with NCI-H23 was 0.005 µM; in the experiment on PC3, 0.052 µM.

Consider `CCCOc1nc(N)nc2c1ncn2CCOCP(=O)(Oc1ccc(Cl)cc1)N1CCC[C@H]1C(=O)OCC` (some centres unmarked) [Example 62], for which the GI50 with A549 was 1.87 µM; with BT-549, 4.44 µM; in the experiment with Du-145 it was 0.001 µM; in the experiment with HCT-116 it was 2.79 µM; in the experiment on HCT-15, 10 µM; in the experiment on Hs-578 it was 1.07 µM. The GI50 in the experiment with NCI-H23 turned out to be 0.049 µM; in the experiment on PC3 it was 0.044 µM.

Turning to `CCCOc1nc(N)nc2c1ncn2CCOCP(=O)(Oc1ccc(C#N)cc1)N1CCC[C@H]1C(=O)OCC` (some centres unmarked) [Example 63], the GI50 in the experiment on A549 is 0.014 µM; in the experiment with BT-549 it was 0.282 µM; in the experiment with Du-145, 0.001 µM; with HCT-116 it was 0.184 µM; in the experiment on HCT-15, 3.35 µM; in the experiment on Hs-578, 0.007 µM. Further, the figures for the GI50 in the experiment on NCI-H23 and in the experiment on PC3 were 0.001 µM and 0.002 µM, respectively.
